# Patent publication US8877748B2, “Heterocyclic fused anthraquinone derivatives, manufacturing method and pharmaceutical composition using thereof” (National Defense Medical Center, priority 2012, dated 2014)
# What was measured:
# [1] = system: PC-3 prostate cancer cell line; assay: SRB assay cell viability, PC-3 prostate cancer cell line; type: cell-based, human; details: Homo sapiens, PC-3 prostate cancer cell line, Table II prints no unit, μM printed, read-out: SRB assay: 50% inhibition of cancer cell proliferation of sample concentration (IC50) of PC-3 prostate cancer cell line
# HL-60, TB = assay: NCI one-dose screening, leukemia HL-60, TB; type: cell-based, human; details: 10 μM
# MOLT-4 = assay: NCI one-dose screening, leukemia MOLT-4; type: cell-based, human; details: 10 μM
# SR = assay: NCI one-dose screening, leukemia SR; type: cell-based, human; details: 10 μM
# PRMI-8226 cell line = assay: NCI one-dose screening, leukemia PRMI-8226; type: cell-based, human; details: 10 μM
# K562cell line = assay: NCI one-dose screening, leukemia K562; type: cell-based, human; details: 10 μM
# EKVX = assay: NCI one-dose screening, non-small cell lung cancer EKVX; type: cell-based, human; details: 10 μM
# HOP-62 = assay: NCI one-dose screening, non-small cell lung cancer HOP-62; type: cell-based, human; details: 10 μM
# HOP-92 = assay: NCI one-dose screening, non-small cell lung cancer HOP-92; type: cell-based, human; details: 10 μM
# NCI-H226 = assay: NCI one-dose screening, non-small cell lung cancer NCI-H226; type: cell-based, human; details: 10 μM
# NCI-H23 = assay: NCI one-dose screening, non-small cell lung cancer NCI-H23; type: cell-based, human; details: 10 μM
# NCI-H460 = assay: NCI one-dose screening, non-small cell lung cancer NCI-H460; type: cell-based, human; details: 10 μM
# NCI-H522 = assay: NCI one-dose screening, non-small cell lung cancer NCI-H522; type: cell-based, human; details: 10 μM
# A549/ATCC = assay: NCI one-dose screening, non-small cell lung cancer A549/ATCC; type: cell-based, human; details: 10 μM
# COLO 205 = assay: NCI one-dose screening, colon cancer COLO 205; type: cell-based, human; details: 10 μM
# HCC-2998 = assay: NCI one-dose screening, colon cancer HCC-2998; type: cell-based, human; details: 10 μM
# HCT-116 = assay: NCI one-dose screening, colon cancer HCT-116; type: cell-based, human; details: 10 μM
# HCT-15 = assay: NCI one-dose screening, colon cancer HCT-15; type: cell-based, human; details: 10 μM
# KM12 = assay: NCI one-dose screening, colon cancer KM12; type: cell-based, human; details: 10 μM
# HT29 = assay: NCI one-dose screening, colon cancer HT29; type: cell-based, human; details: 10 μM
# SF-268 = assay: NCI one-dose screening, CNS cancer SF-268; type: cell-based, human; details: 10 μM
# SF-539 = assay: NCI one-dose screening, CNS cancer SF-539; type: cell-based, human; details: 10 μM
# SNB-19 = assay: NCI one-dose screening, CNS cancer SNB-19; type: cell-based, human; details: 10 μM
# SNB-75 = assay: NCI one-dose screening, CNS cancer SNB-75; type: cell-based, human; details: 10 μM
# U251 = assay: NCI one-dose screening, CNS cancer U251; type: cell-based, human; details: 10 μM
# LOX IMVI = assay: NCI one-dose screening, melanoma LOX IMVI; type: cell-based, human; details: 10 μM
# MALME-3M = assay: NCI one-dose screening, melanoma MALME-3M; type: cell-based, human; details: 10 μM
# M14 = assay: NCI one-dose screening, melanoma M14; type: cell-based, human; details: 10 μM
# UACC-62 = assay: NCI one-dose screening, melanoma UACC-62; type: cell-based, human; details: 10 μM
# UACC-257 = assay: NCI one-dose screening, melanoma UACC-257; type: cell-based, human; details: 10 μM
# SK-MEL-2 = assay: NCI one-dose screening, melanoma SK-MEL-2; type: cell-based, human; details: 10 μM
# SK-MEL-28 = assay: NCI one-dose screening, melanoma SK-MEL-28; type: cell-based, human; details: 10 μM
# SK-MEL-5 = assay: NCI one-dose screening, melanoma SK-MEL-5; type: cell-based, human; details: 10 μM
# IGROV1 = assay: NCI one-dose screening, ovarian cancer IGROV1; type: cell-based, human; details: 10 μM
# OVCAR-3 = assay: NCI one-dose screening, ovarian cancer OVCAR-3; type: cell-based, human; details: 10 μM
# OVCAR-5 = assay: NCI one-dose screening, ovarian cancer OVCAR-5; type: cell-based, human; details: 10 μM
# OVCAR-8 = assay: NCI one-dose screening, ovarian cancer OVCAR-8; type: cell-based, human; details: 10 μM
# SK-OV-3 = assay: NCI one-dose screening, ovarian cancer SK-OV-3; type: cell-based, human; details: 10 μM
# 786-O = assay: NCI one-dose screening, renal cancer 786-O; type: cell-based, human; details: 10 μM
# [2] = NCI one-dose screening, renal cancer A489; type: cell-based, human; details: 10 μM
# ACHN = assay: NCI one-dose screening, renal cancer ACHN; type: cell-based, human; details: 10 μM
# SN12C = assay: NCI one-dose screening, renal cancer SN12C; type: cell-based, human; details: 10 μM
# TK-10 = assay: NCI one-dose screening, renal cancer TK-10; type: cell-based, human; details: 10 μM
# UO-31 = assay: NCI one-dose screening, renal cancer UO-31; type: cell-based, human; details: 10 μM
# RXF, 393 = assay: NCI one-dose screening, renal cancer RXF, 393; type: cell-based, human; details: 10 μM
# DU145 = assay: NCI one-dose screening, prostate cancer DU145; type: cell-based, human; details: 10 μM
# PC-3 = assay: NCI one-dose screening, prostate cancer PC-3; type: cell-based, human; details: 10 μM
# MCF7 = assay: NCI one-dose screening, breast cancer MCF7; type: cell-based, human; details: 10 μM
# HS 578-T = assay: NCI one-dose screening, breast cancer HS 578-T; type: cell-based, human; details: 10 μM; Breast cancer
# MDA-MB-231/ATCC = assay: NCI one-dose screening, breast cancer MDA-MB-231/ATCC; type: cell-based, human; details: 10 μM
# MDA-MB-468 = assay: NCI one-dose screening, breast cancer MDA-MB-468; type: cell-based, human; details: 10 μM
# NCl/ADR-RES = assay: NCI one-dose screening, breast cancer NCl/ADR-RES; type: cell-based, human; details: 10 μM; listed under Ovarian cancer
# BT-549 = assay: NCI one-dose screening, breast cancer BT-549; type: cell-based, human; details: 10 μM
# T-47D = assay: NCI one-dose screening, breast cancer T-47D; type: cell-based, human; details: 10 μM
# MDA, -MB-435 = assay: NCI one-dose screening, breast cancer MDA, -MB-435; type: cell-based, human; details: 10 μM; listed under Melanoma
# human tumor cell lines = assay: NCI one-dose screening, Mean / Delta / Range of growth percent over all tested cell lines; type: cell-based; details: 10 μM; for Growth Percent Delta: delta over all cell lines; for Growth Percent Mean: mean over all cell lines; for Growth Percent Range: range over all cell lines
smiles,measurement,setting,value
"Cc1ccc(Sc2cc3c(c4nsnc24)C(=O)c2ccccc2C3=O)c(C)c1 [C25, 4-(2,4-dimethylphenylthio)anthra[2,1-c] [1,2,5]thiadiazol-6,11-dione]",IC50,[1],> 15 µM
same,Growth Percent HL-60(TB),"HL-60, TB",99.93%
same,Growth Percent MOLT-4,MOLT-4,91.01%
same,Growth Percent SR,SR,70.26%
same,Growth Percent RPMI-8226,PRMI-8226 cell line,85.14%
same,Growth Percent K562,K562cell line,67.97%
same,Growth Percent EKVX,EKVX,108.79%
same,Growth Percent HOP-62,HOP-62,79.34%
same,Growth Percent HOP-92,HOP-92,97.83%
same,Growth Percent NCI-H226,NCI-H226,01.50%
same,Growth Percent NCI-H23,NCI-H23,89.40%
same,Growth Percent NCI-H460,NCI-H460,102.01%
same,Growth Percent NCI-H522,NCI-H522,96.81%
same,Growth Percent A549/ATCC,A549/ATCC,109.80%
same,Growth Percent COLO 205,COLO 205,106.63%
same,Growth Percent HCC-2998,HCC-2998,121.23%
same,Growth Percent HCT-116,HCT-116,94.55%
same,Growth Percent HCT-15,HCT-15,83.04%
same,Growth Percent KM12,KM12,96.42%
same,Growth Percent HT29,HT29,101.47%
same,Growth Percent SF-268,SF-268,90.61%
same,Growth Percent SF-539,SF-539,100.22%
same,Growth Percent SNB-19,SNB-19,102.33%
same,Growth Percent SNB-75,SNB-75,76.05%
same,Growth Percent U251,U251,104.99%
same,Growth Percent LOX IMVI,LOX IMVI,90.38%
same,Growth Percent MALME-3M,MALME-3M,108.23%
same,Growth Percent M14,M14,100.77%
same,Growth Percent UACC-62,UACC-62,94.50%
same,Growth Percent UACC-257,UACC-257,121.93%
same,Growth Percent SK-MEL-2,SK-MEL-2,98.52%
same,Growth Percent SK-MEL-28,SK-MEL-28,118.64%
same,Growth Percent SK-MEL-5,SK-MEL-5,109.99%
same,Growth Percent IGROV1,IGROV1,95.00%
same,Growth Percent OVCAR-3,OVCAR-3,105.38%
same,Growth Percent OVCAR-5,OVCAR-5,106.46%
same,Growth Percent OVCAR-8,OVCAR-8,104.59%
same,Growth Percent SK-OV-3,SK-OV-3,110.36%
same,Growth Percent 786-0,786-O,105.11%
same,Growth Percent A498,[2],84.37%
same,Growth Percent ACHN,ACHN,94.24%
same,Growth Percent SN12C,SN12C,98.68%
same,Growth Percent TK-10,TK-10,127.11%
same,Growth Percent UO-31,UO-31,65.72%
same,Growth Percent RXF 393,"RXF, 393",105.93%
same,Growth Percent DU145,DU145,109.69%
same,Growth Percent PC-3,PC-3,76.11%
same,Growth Percent MCF7,MCF7,79.77%
same,Growth Percent HS 578T,HS 578-T,99.06%
same,Growth Percent MDA-MB-231/ATCC,MDA-MB-231/ATCC,92.27%
same,Growth Percent MDA-MB-468,MDA-MB-468,100.45%
same,Growth Percent NCI/ADR-RES,NCl/ADR-RES,97.75%
same,Growth Percent BT-549,BT-549,94.55%
same,Growth Percent T-47D,T-47D,75.36%
same,Growth Percent MDA-MB-435,"MDA, -MB-435",105.58%
same,Growth Percent Delta,human tumor cell lines,31.54%
same,Growth Percent Mean,human tumor cell lines,97.26%
same,Growth Percent Range,human tumor cell lines,61.39%
"COc1cccc(Sc2cc3c(c4nsnc24)C(=O)c2ccccc2C3=O)c1 [C46, 4-(3-methoxy-phenyl-thio)anthra[2,1-c] [1,2,5]thiadiazol-6,11-dione]",IC50,[1],> 15 µM
same,Growth Percent HL-60(TB),"HL-60, TB",84.53%
same,Growth Percent MOLT-4,MOLT-4,35.83%
same,Growth Percent SR,SR,36.14%
same,Growth Percent RPMI-8226,PRMI-8226 cell line,52.03%
same,Growth Percent K562,K562cell line,38.52%
same,Growth Percent EKVX,EKVX,104.94%
same,Growth Percent HOP-62,HOP-62,61.81%
same,Growth Percent HOP-92,HOP-92,100.52%
same,Growth Percent NCI-H226,NCI-H226,95.26%
same,Growth Percent NCI-H23,NCI-H23,76.42%
same,Growth Percent NCI-H460,NCI-H460,100.27%
same,Growth Percent NCI-H522,NCI-H522,82.41%
same,Growth Percent A549/ATCC,A549/ATCC,109.52%
same,Growth Percent COLO 205,COLO 205,109.57%
same,Growth Percent HCC-2998,HCC-2998,104.94%
same,Growth Percent HCT-116,HCT-116,85.66%
same,Growth Percent HCT-15,HCT-15,71.89%
same,Growth Percent KM12,KM12,97.06%
same,Growth Percent HT29,HT29,105.25%
same,Growth Percent SF-268,SF-268,89.75%
same,Growth Percent SF-539,SF-539,107.05%
same,Growth Percent SNB-19,SNB-19,105.92%
same,Growth Percent SNB-75,SNB-75,81.80%
same,Growth Percent U251,U251,100.67%
same,Growth Percent LOX IMVI,LOX IMVI,70.96%
same,Growth Percent MALME-3M,MALME-3M,113.06%
same,Growth Percent M14,M14,94.23%
same,Growth Percent UACC-62,UACC-62,87.72%
same,Growth Percent UACC-257,UACC-257,104/27
same,Growth Percent SK-MEL-2,SK-MEL-2,82.62%
same,Growth Percent SK-MEL-28,SK-MEL-28,101.77%
same,Growth Percent SK-MEL-5,SK-MEL-5,100.11%
same,Growth Percent IGROV1,IGROV1,99.91%
same,Growth Percent OVCAR-3,OVCAR-3,85.83%
same,Growth Percent OVCAR-5,OVCAR-5,122.58%
same,Growth Percent OVCAR-8,OVCAR-8,97.32%
same,Growth Percent SK-OV-3,SK-OV-3,110.30%
same,Growth Percent 786-0,786-O,102.97%
same,Growth Percent A498,[2],83.74%
same,Growth Percent ACHN,ACHN,98.70%
same,Growth Percent SN12C,SN12C,95.93%
same,Growth Percent TK-10,TK-10,130.80%
same,Growth Percent UO-31,UO-31,75.49%
same,Growth Percent RXF 393,"RXF, 393",124.15%
same,Growth Percent DU145,DU145,98.87%
same,Growth Percent PC-3,PC-3,75.99%
same,Growth Percent MCF7,MCF7,72.77%
same,Growth Percent HS 578T,HS 578-T,93.84%
same,Growth Percent MDA-MB-231/ATCC,MDA-MB-231/ATCC,87.08%
same,Growth Percent MDA-MB-468,MDA-MB-468,93.53%
same,Growth Percent NCI/ADR-RES,NCl/ADR-RES,92.67%
same,Growth Percent BT-549,BT-549,94.91%
same,Growth Percent T-47D,T-47D,69.09%
same,Growth Percent MDA-MB-435,"MDA, -MB-435",72.50%
same,Growth Percent Delta,human tumor cell lines,55.47%
same,Growth Percent Mean,human tumor cell lines,91.30%
same,Growth Percent Range,human tumor cell lines,94.97%
